In ChEMBL document CHEMBL1201862, “PubChem BioAssay data set” (2004):
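How tested: cells in 96-well plates exposed to compound for 48 hours at five concentrations. Abbreviation: GI50, concentration required for 50% inhibition of growth.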 Activity calls are given as the source filed them. Rule as the data show it: active = GI50 up to about 1.1 µM and inactive = higher. Where a SMILES comes first, the peptide text is derived from it. The star is where a group is joined. Boc = CC(C)(C)OC(=O)*; Bn = c1ccc(C*)cc1

What was measured:
Assay in all cases: NCI anticancer screen, dose series, 48 h
SK-MEL-28 = system: SK-MEL-28
HOP-92 = system: HOP-92
NCI-H23 = system: NCI-H23
OVCAR-8 = system: OVCAR-8
SF-268 = system: SF-268
PC-3 = system: PC-3
MDA-MB-231 = system: MDA-MB-231
SNB-75 = system: SNB-75
786-0 = system: 786-0
HCC 2998 = system: HCC 2998
SK-MEL-2 = system: SK-MEL-2
MDA-MB-435 = system: MDA-MB-435
SNB-19 = system: SNB-19
COLO 205 = system: COLO 205
SK-OV-3 = system: SK-OV-3
NCI-H460 = system: NCI-H460
OVCAR-3 = system: OVCAR-3
IGROV-1 = system: IGROV-1
A549 = system: A549
BT-549 = system: BT-549

Measured: GI50

CCCCN(CCCC)CCC(O)c1cc2c(Cl)cc(Cl)cc2c2cc(C(F)(F)F)ccc12 (stereo not given)
inactive: SK-MEL-28 16.7 µM | HOP-92 1.32 µM | NCI-H23 12.4 µM | OVCAR-8 14.3 µM | SF-268 11.7 µM | PC-3 10.1 µM | MDA-MB-231 2.52 µM | SNB-75 11.7 µM | 786-0 12.9 µM | HCC 2998 11.7 µM | SK-MEL-2 16.1 µM | MDA-MB-435 12.6 µM | SNB-19 19.1 µM | COLO 205 10.8 µM | SK-OV-3 14 µM | NCI-H460 10.3 µM | OVCAR-3 11.6 µM | IGROV-1 12.7 µM

CC(=O)/C=C1/C(=O)C(CC(C)C)=C1CC(C)C
inactive: SK-MEL-28 > 100 µM | A549 > 100 µM | HOP-92 > 100 µM | NCI-H23 > 100 µM | OVCAR-8 > 100 µM | SF-268 > 100 µM | PC-3 > 100 µM | MDA-MB-231 > 100 µM | SNB-75 > 100 µM | 786-0 > 100 µM | SK-MEL-2 > 100 µM | MDA-MB-435 > 100 µM | SNB-19 > 100 µM | COLO 205 > 100 µM | SK-OV-3 > 100 µM | IGROV-1 > 100 µM

CC(C)Oc1c(O)c2c3c(oc(=O)n3C=CC2c2ccccc2)c1OC(C)C (stereo not given)
inactive: SK-MEL-28 22.5 µM | A549 27.3 µM | HOP-92 30.2 µM | NCI-H23 20.2 µM | OVCAR-8 31.9 µM | PC-3 17 µM | MDA-MB-231 30.3 µM | SNB-75 21.9 µM | 786-0 36.1 µM | HCC 2998 19 µM | SK-MEL-2 15.7 µM | MDA-MB-435 > 10 µM | SNB-19 20.3 µM | COLO 205 22.1 µM | SK-OV-3 > 100 µM | NCI-H460 14.7 µM | OVCAR-3 21.5 µM | IGROV-1 21.9 µM

COC(=O)C(CC(C)C)NC(=O)C(C)NC(=O)C(Cc1ccc(OCc2ccccc2)cc1)NC(=O)C(COCc1ccccc1)NC(=O)OC(C)(C)C (stereo not given) (Boc-S(Bn)Y(Bn)AL-OMe; configuration not given here)
inactive: SK-MEL-28 > 100 µM | A549 > 100 µM | BT-549 > 100 µM | HOP-92 > 100 µM | NCI-H23 > 100 µM | OVCAR-8 > 100 µM | SF-268 > 100 µM | PC-3 > 100 µM | SNB-75 > 100 µM | 786-0 > 100 µM | MDA-MB-435 > 100 µM | SNB-19 > 100 µM | COLO 205 > 100 µM | SK-OV-3 > 100 µM | NCI-H460 > 100 µM | OVCAR-3 > 100 µM | IGROV-1 > 100 µM

COC(=O)C1C(=O)N(C)C(=O)N2CCCC12 (stereo not given)
inactive: SK-MEL-28 1.4 µM | A549 > 100 µM | HOP-92 > 100 µM | NCI-H23 > 100 µM | OVCAR-8 > 100 µM | SF-268 > 100 µM | PC-3 > 100 µM | MDA-MB-231 > 100 µM | SNB-75 > 100 µM | 786-0 > 100 µM | HCC 2998 > 100 µM | SK-MEL-2 > 100 µM | MDA-MB-435 > 100 µM | SNB-19 > 100 µM | COLO 205 > 100 µM | SK-OV-3 > 100 µM | NCI-H460 > 100 µM | OVCAR-3 > 100 µM | IGROV-1 > 100 µM

Cc1cn(CC2=NCC(O)CN2)c(=O)[nH]c1=O (stereo not given)
inactive: SK-MEL-28 > 100 µM | A549 > 100 µM | HOP-92 > 100 µM | NCI-H23 > 100 µM | OVCAR-8 > 100 µM | SF-268 > 100 µM | PC-3 > 100 µM | MDA-MB-231 > 100 µM | 786-0 > 100 µM | HCC 2998 > 100 µM | SK-MEL-2 > 100 µM | MDA-MB-435 > 100 µM | SNB-19 > 100 µM | COLO 205 > 100 µM | SK-OV-3 > 100 µM | NCI-H460 > 100 µM | OVCAR-3 > 100 µM | IGROV-1 > 100 µM

O=C(CSc1nc2ccc(I)cc2c(=O)n1Cc1ccccc1)NNC(=S)Nc1ccccc1
inactive: SK-MEL-28 > 100 µM | A549 24.6 µM | BT-549 80.5 µM | HOP-92 11.8 µM | NCI-H23 15.1 µM | OVCAR-8 3.11 µM | SF-268 5.27 µM | PC-3 9.68 µM | SNB-75 > 100 µM | 786-0 7.4 µM | HCC 2998 43.3 µM | SK-MEL-2 18 µM | MDA-MB-435 41.3 µM | SNB-19 41.3 µM | COLO 205 23.1 µM | SK-OV-3 > 100 µM | NCI-H460 5.47 µM | OVCAR-3 12.9 µM | IGROV-1 2.91 µM
